Legend:
carp = assay: Carp exposed to 75 ppm linalool for varying amounts of time, recovery observed; assay type: in vivo, Cyprinus carpio; parameters: key to recovery state at 13 minutes after introduction of linalool / recovery state at 15 minutes after introduction of linalool / recovery state at 16 minutes after introduction of linalool / recovery state at 17 minutes after introduction of linalool / recovery state at 19 minutes after introduction of linalool / recovery state at 20 minutes after introduction of linalool / recovery state at 21 minutes after introduction of linalool / recovery state at 22 minutes after introduction of linalool / recovery state at 24 minutes after introduction of linalool / recovery state at 25 minutes after introduction of linalool / recovery state at 27 minutes after introduction of linalool / recovery state at 28 minutes after introduction of linalool / recovery state at 29 minutes after introduction of linalool / recovery state at 38 minutes after introduction of linalool / recovery state at 39 minutes after introduction of linalool / recovery state at 40 minutes after introduction of linalool / recovery state at 70 minutes after introduction of linalool / recovery state at 77 minutes after introduction of linalool / recovery state at 78 minutes after introduction of linalool: RT = removed to recovery tank; PR = partial recovery; TR = total recovery
Method: 16 healthy carp (Cyprinus carpio), average weight of 150 g, maintained in 6 liter tanks, were each exposed to 75 ppm of linalool (using the same formulation described in Example 1, 45 g of which were mixed into each treatment tank) for varying amounts of time. Pairs of fish were introduced to linalool simultaneously and then removed to recovery tanks at various times: 3, 8, 12, 15, 20, 30, 40 and 50 minutes after introduction, and each fish's recovery was observed over the course of two consecutive days. Complete anesthesia was achieved after 5 minutes of exposure.

Guppy fish = assay: Anesthesia of guppy fish by linalool or Ho Wood oil added to tank water; assay type: in vivo
Method: A one year old koi fish of body length 11 cm and which appeared to be healthy was placed in a 4 liter tank containing water at 25° C. and in which the water was circulated by means of aeration. A liquid a mixture containing 1 wt. % synthetic linalool (1 wt. % linalool, 5 wt. % 14R, 2 wt. % AF80 and 92 wt. % water) was added to the tank and manually mixed with the water so that the concentration of linalool in the water was 50 ppm. This was regarding as the starting time of the experiment; thereafter, observations were made regularly to determine the behavior of the fish in water. This continued until no response to external stimulation and complete loss of equilibrium were observed, at which point the fish was transferred to a recovery tank containing fresh water. The fish was placed near the air pump, and the time until the fish again swam and responded normally to external stimulation was recorded.
To a one liter tank containing five guppy fingerlings 21-30 days old of weight 0.010-0.014 g and body length 0.5 cm in water at 30° C. and pH 7 was added a formulation containing 92.5% linalool. The formulation was added to the water to a linalool concentration of 50 ppm in the water. The fish became relaxed 5 minutes after addition of linalool and after 7 minutes were completely anesthetized. At 10 minutes the fish were removed to a recovery tank with fresh water. After two minutes in the recovery tank the fish resumed normal behavior.
The experiment of Example 21 was repeated, using four 10-month old Guppy fish of respective body lengths 3, 3.5, 4 and 3 cm, and adding the Ho Wood oil to a linalool concentration of 50 ppm in the water. […] At 14.5 minutes the fish were removed to a recovery tank with clean water. After two minutes in the recovery tank they swam around and appeared to have resumed normal activity.
The experiment of Example 21 was repeated, using four 10-month old Guppy fish of respective body lengths 4, 3.5, 3.5 and 3 cm, and adding the Ho Wood oil to a linalool concentration in the water of 75 ppm instead 50 ppm. […]

cyprinus carpio = assay: Three-hour sedation of carp with 30 ppm linalool; assay type: in vivo
Method: Three cyprinus carpio of 140 g average weight, each in a tank of 20 L water at 25° C., were exposed to linalool, added to each tank in a formulation containing 20 wt. % linalool, 5 wt. % Alkamuls 14/R (a non-ionic surfactant added as an emulsifier), 70 wt. % propylene glycol and 5 wt. % ethanol to a linalool concentration of 30 ppm in the water. Specimens were observed every 30 minutes after addition of linalool. […] After removal to a tank of untreated water, each of the fish returned to their initial state within five minutes.

fish = assay: Exposure of fish to linalool at different concentrations and times (survival, anesthesia); assay type: in vivo
Text: As will be appreciated by persons skilled in the art, for a given type of aquatic organism of a given size, there is an inverse (though not necessarily linear) relationship between the concentration of linalool in the water and the amount of time the organism needs to be exposed to the linalool in order to achieve sedation or anesthetization, and similarly there is an inverse (though not necessarily linear) relationship between the linalool concentration and the amount of time an organism may be exposed to the linalool in order before death occurs. […] On the other hand, the same fish were unaffected by exposure to 25 ppm linalool, even for long periods of time.

[1] = carp 150 g, fish still exposed (nos. 3-16)
[2] = carp, removed to recovery tank at 8 minutes (fish nos. 3, 4)
[3] = carp, removed to recovery tank at 12 minutes (fish nos. 5, 6)
[4] = carp, removed to recovery tank at 15 minutes (fish nos. 7, 8)
[5] = carp, removed to recovery tank at 20 minutes (fish nos. 9, 10)
[6] = carp, removed to recovery tank at 30 minutes (fish nos. 11, 12)
[7] = carp, removed to recovery tank at 40 minutes (fish nos. 13, 14)
[8] = Example 17: five guppy fingerlings, 50 ppm linalool (formulation containing 92.5% linalool), 30° C., pH 7

## C=CC(C)(O)CCC=C(C)C (stereo not drawn) [linalool]
carp; Example 8: carp 150 g
  time of exposure until complete anesthesia: 5 min
carp; carp 150 g
  observed state at 5 minutes after introduction of linalool: Loss of reflex reactivity (stage 5 anesthesia)
  observed state at 10 minutes after introduction of linalool: opercular movements slow and irregular
carp; carp 150 g, all fish
  observed state at 1 minute after introduction of linalool: Total loss of equilibrium
carp; [1]
  observed state at 3 minutes after introduction of linalool: Total loss of reactivity to all but strong external stimuli
  observed state at 4 minutes after introduction of linalool: slow but regular opercular rate
carp; carp, removed to recovery tank at 3 minutes (fish nos. 1, 2)
  recovery state at 13 minutes after introduction of linalool: TR
carp; [2]
  recovery state at 15 minutes after introduction of linalool: PR
  recovery state at 16 minutes after introduction of linalool: TR and PR
  recovery state at 17 minutes after introduction of linalool: TR
carp; [3]
  recovery state at 19 minutes after introduction of linalool: PR
  recovery state at 20 minutes after introduction of linalool: PR
  recovery state at 21 minutes after introduction of linalool: TR
  recovery state at 22 minutes after introduction of linalool: TR
carp; [4]
  recovery state at 24 minutes after introduction of linalool: PR
  recovery state at 25 minutes after introduction of linalool: TR
  recovery state at 28 minutes after introduction of linalool: PR
  recovery state at 29 minutes after introduction of linalool: TR
carp; [5]
  recovery state at 27 minutes after introduction of linalool: PR
  recovery state at 28 minutes after introduction of linalool: TR
carp; [6]
  recovery state at 38 minutes after introduction of linalool: PR
  recovery state at 39 minutes after introduction of linalool: TR and PR
  recovery state at 40 minutes after introduction of linalool: TR
carp; [7]
  recovery state at 70 minutes after introduction of linalool: TR
  recovery state at 77 minutes after introduction of linalool: PR
  recovery state at 78 minutes after introduction of linalool: TR
carp; carp, removed to recovery tank at 50 minutes
  recovery of fish nos. 15 and 16: Fish nos. 15 and 16 never recovered.
Guppy fish; [8]
  time after addition of linalool until fish became relaxed: 5 min
  time until fish completely anesthetized: 7 min
Guppy fish; Example 17: guppy fingerlings, 50 ppm linalool, removed at 10 minutes
  time in recovery tank until normal behavior resumed: two
Cyprinus carpio; Example 28: carp 140 g, after three-hour exposure
  time in untreated water until return to initial state: five
Cyprinus carpio; Example 28: three carp 140 g, 25° C., at 30 minutes after exposure and for the duration of the three-hour exposure
  handling state of the fish: easy to handle
fish; fish exposed to 25 ppm linalool, even for long periods of time
  effect of exposure: unaffected
fish; fish left for 40 minutes in 100 ppm linalool
  survival: did not survive
fish; fish left for 50 minutes in 75 ppm linalool
  survival: did not survive
fish; fish left for five minutes in 100 ppm linalool
  anesthesia: effectively anesthetized

— patent publication US20140259191A1, “FISH ANESTHETIC AND METHOD” (AQUA-MOR TECHNOLOGIES LTD., priority 2011, published 2014)
